# According to patent US20020013478A1, “Calanolide analogues and methods of their use” (Sarawak Medichem Pharmaceuticals,Inc., priority 1994, published 2002):
# Like-named read-outs stand apart in the source and are kept apart here.
# Assays:
# EBV = EBV assay: superinfection of Raji or Daudi cells with P3HR-1, immunofluorescence for EA and VCA; type: cell-based, Epstein-Barr virus
# How it was run: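 Raji cells (Burkitt's lymphoma, 60 EBV genomes/cell) or Daudi cells were superinfected with P3HR-1 EBV, and drugs were added after 45 min adsorption at 37 °C and washing. After 48 h, smears were stained with monoclonal antibodies to EA components and VCA plus fluorescein anti-mouse Ig. Fluorescence-positive cells were counted to give total EA- or VCA-positive cells per culture.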
# Raji or Daudi cells = assay: Toxicity run with the EBV assay; type: cell-based, human; details: Table II
# Excerpt: IC50 (50% inhibitory concentration) is the concentration required to inhibit cell proliferation by 50%
# [1] = tested on: African green monkey kidney (BSC-1) cells; assay: Cytotoxicity run with the measles assay
# Excerpt: Virus strain: CC (Source: Pennsylvania State University) Cell line: African green monkey kidney (BSC-1) cells.
# HIV-1 = assay: microbe, parasite or virus in culture; details: Human immunodeficiency virus 1, CEM-SS
SMILES,EBV EC50 (EBV; Table II) [µg/mL],EBV IC50 (Raji or Daudi cells) [µg/mL],"IC50 ([1]; read-out: Others IC50, against measles, Table II footnote g) [µM]","EC50 (EBV; human gammaherpesvirus 4, Table II) [µg/mL]",potency against EBV (EBV; text summary of Table II),IC50 (Raji or Daudi cells; Homo sapiens) [µg/mL],EC50 (HIV-1) [µM],"IC50 ([1]; Chlorocebus sabaeus, BSC-1, read-out: Others IC50, against measles) [µM]"
CCCc1cc(=O)oc2c3c(c4c(c12)OC(C)(C)C=C4)OC(C)C(C)C3=O (racemic) [(±)-7a],>50,>50,333,,,,,
"CCCc1cc(=O)oc2c3c(c4c(c12)OC(C)(C)C=C4)O[C@H](C)[C@@H](C)C3=O [(+)-7, 10(R),11(R)-trans-Dihydro6,6,10,11-tetramethyl-4-propyl-2H,6H,12H-benzo [1,2-b:3,4-b′:5,6-b″]tripyran-2,12-dione]",,,,0.94,very potent,> 50,0.68,10
